≈ marks a conversion by molar mass, not a printed value. Where two headings read alike, the source gives them in different places.
How the values were obtained:
Format in all cases: cell-based
E. coli. HH 33779 = experiment: MIC in vitro, E. coli HH 33779; conditions: Escherichia coli
Strep. pyog. C 203 = experiment: MIC in vitro, Strep. pyog. C 203
K. pneumo. SK 4200 = experiment: MIC in vitro, K. pneumo. SK 4200
Pseudomonas sp. HH 63 = experiment: MIC in vitro, Pseudomonas sp. HH 63; conditions: SP.HH63
Entero. aerogenes = experiment: MIC in vitro, Entero. aerogenes; conditions: Klebsiella aerogenes
S. aureus HH 127 = experiment: MIC in vitro, S. aureus HH 127; conditions: Staphylococcus aureus, HH127
Strep. faecalis HH 34358 = experiment: MIC in vitro, Strep. faecalis HH 34358; conditions: Enterococcus faecalis, HH34358
[1] = E. coli. HH 33779, read-out: MIC

Row | SMILES | MIC (E. coli. HH 33779; [1]) [µg/mL] | MIC (Strep. pyog. C 203) [µg/mL] | MIC (K. pneumo. SK 4200) [µg/mL] | MIC (Pseudomonas sp. HH 63) [µg/mL] | MIC (Entero. aerogenes) [µg/mL] | MIC (S. aureus HH 127) [µg/mL] | MIC (Strep. faecalis HH 34358) [µg/mL] | MIC (E. coli. HH 33779) [µg/mL]
1 | Cn1nnnc1SCC1=C(C(=O)O)N2C(=O)C(NC(=O)CSC(F)(F)F)[C@H]2SC1 (stereo partly drawn) [II, 7-Trifluoromethylmercaptoacetamido-3-(1-methyl-tetrazol-5-ylthiomethyl)-3-cephem-4-carboxylic acid] | 1.6 (≈ 3.4 µM) | 0.1 (≈ 0.213 µM) | 0.8 (≈ 1.7 µM) | < 200 | 1.6 (≈ 3.4 µM) | 0.4 (≈ 0.85 µM) | 25 (≈ 53.1 µM) | 
2 | Cc1nnc(SCC2=C(C(=O)O)N3C(=O)C(NC(=O)CSC(F)(F)F)[C@H]3SC2)s1 (stereo partly drawn) [III, 7-trifluoromethylmercaptoacetamido-3-(5-methyl-1,3,4-thiadiazol-2-ylthiomethyl)-3-cephem-4-carboxylic acid] |  | 0.1 (≈ 0.206 µM) | 1.6 (≈ 3.29 µM) | < 200 | 6.3 (≈ 12.9 µM) | 0.4 (≈ 0.822 µM) | 12.5 (≈ 25.7 µM) | 3.1 (≈ 6.37 µM)
3 | CC(=O)OCC1=C(C(=O)O)N2C(=O)C(NC(=O)CSC(F)(F)F)C2SC1 (stereo not drawn) [I, 7-trifluoromethylmercaptoacetamidocephalosporanic acid] | 6.3 (≈ 15.2 µM) | 0.1 (≈ 0.241 µM) | 0.8 (≈ 1.93 µM) | < 200 | 50 (≈ 121 µM) | 0.4 (≈ 0.965 µM) | 25 (≈ 60.3 µM) | 
